Reference: patent US11059823B2, “Small molecule inhibitors of the JAK family of kinases” (Janssen Pharmaceutica NV, priority 2016, dated 2021)

Experiments:
MDCK-MDR1 cell line = assay: MDCK-MDR1 permeability assay; assay type: in vitro ADME; conditions: apical-to-basolateral, with P-gp inhibitor elacridar (2 μM), 5 μM, 60 min
Description: Permeability measurements were conducted according to the Cyprotex protocol using the MDCK-MDR1 cell line obtained from the NIH (Rockville, Md., USA). […] The cells in this assay form a cohesive sheet of a single cell layer filing the surface area of the culture dish, also known as a confluent monolayer, and on day four the test compound was added to the apical side of the membrane and the transport of the compound across the monolayer was monitored over a time period of 60 min.
Test compounds were dissolved in DMSO at a concentration of 10 mM. The dosing solutions were prepared by diluting test compound with assay buffer (Hanks Balanced Salt Solution), pH 7.4, at a final concentration of 5 μM. For assessment of apical to basolateral (“A-B”) permeability, buffer was removed from the apical compartment and replaced with test compound dosing solution with or without the permeability glycoprotein (“PgP”, “P-gP”, “Pgp” or “P-gp”) inhibitor elacridar (2 μM). For assessment of basolateral to apical (“B-A”) permeability, buffer was removed from the companion plate and replaced with test compound dosing solution. Incubations were carried out in duplicate at 37° C. in an atmosphere of 5% CO2 with a relative humidity of 95%. Each assay included the reference markers propranolol (high permeability) and prazosin (PgP substrate). After incubation for 60 minutes, apical and basolateral samples were diluted and test compounds quantified by LC/MS/MS using an 8-point calibration in the range 0.0039 to 3 μM with appropriate dilution of the samples (receiver dilution factor=1; donor and Co dilution factor=10). The permeability coefficient (Papp) for each compound was calculated from the following equation: Papp=(dQ/dt)/(C0×S), where dQ/dt is the rate of permeation of the drug across the cells, C0 is the donor compartment concentration at time zero, and S is the area of the cell monolayer.
Papp(A-B) gives an indication of permeation extent across the cells in this assay, which is envisaged to model the transcellular transport across Pgp-expressing cells, such as Pgp-expressing gastrointestinal tract cells.

moderate to severe CD = conditions: 4 week/Phase 2 clinical trial; cited from earlier work
[1] = Physical stability of crystalline embodiments of compound Ex. 1 (polymorph screening, HT-XRPD); assay type: physicochemical; conditions: for physical stability after exposure to AAC: accelerated aging conditions, 40° C./70% RH, two days
Description: Long term slurry experiments were performed by suspending compound embodiment 1s in twenty neat solvents and stirred at room temperature for two weeks and at 50° C. for one week. Upon completion of the equilibration time, the residual solids were separated from the mother liquors. The solids were dried under ambient conditions and dried under vacuum (5 mBar) before being analyzed by HT-XRPD. Subsequently, the solids were exposed to accelerated aging conditions (40° C./70% relative humidity) for two days and again analyzed by HT-XRPD.
Embodiment is converted to hydrated embodiment 10 when it was exposed to 100% RH at 25° C. […] This behavior is attributable to an unequally strong binding of all the hydration/solvation molecules. In this case, embodiment 10 would have a less strongly bound second water molecule that would be lost under ambient conditions. More precisely, the physical stability of embodiment is was investigated in climate chambers by exposing a 20 mg sample of such embodiment to 40° C. and 70% relative humidity for four days, and another 20 mg sample of the same embodiment was exposed also for four days to 25° C. and 100% relative humidity. After four days, the various solid samples were analyzed by HR-XRPD, the crystal cell parameters were determined and the diffractograms were indexed. From bottom to top, the first diffractogram in FIG. 6 corresponds to embodiment is as starting material, and the second corresponds to the same form after a 4-day exposure to 40° C. and 70% relative humidity, noted as “1s 70 RH” in the same figure. […] Indexing for such form was not possible due to the small amount in which it was present. The third diffractogram corresponds to embodiment is after a 4-day exposure to 25° C. and 100% relative humidity, noted as “10” in the same figure. […] Upon dehydration, both embodiments 1s and 10 re-crystallized to the anhydrous form with a melting point of 148° C.
The mother liquors of the solvent equilibration experiments performed at 50° C. were filtered at 50° C. to remove any particulate matter. […] When solids had precipitated during aging these solids were separated from the liquid, dried under ambient conditions and under vacuum, and analyzed by HT-XRPD. The remaining mother liquors were allowed to slowly evaporate and the remaining solids were analyzed by HT-XRPD. The samples in which no precipitation occurred were placed under vacuum and the dried solids were analyzed by HT-XRPD. All the solids were then exposed to AAC (2 days at 40° C./70% RH) and re-analyzed by HT-XRPD.
The cooling/evaporative crystallization experiments at L scale were performed in a 96-well plate, using 12 neat solvents and 12 solvent mixtures and applying four temperature profiles. […] Upon completion of the temperature profile the solvents were allowed to evaporate at low ambient pressure (24 hours) and the remaining solids were analyzed by HT-XRPD before and after exposure to AAC for 2 days (40° C./70% RH).
The cooling crystallization experiments with hot filtration were performed from supersaturated solutions of compound Ex. 1 prepared at 50° C. in different solvent mixtures. […] The vials in which solids had precipitated after the temperature profile were centrifuged and the solids were separated from the liquid and analyzed by HT-XRPD (after drying under vacuum). If no solids had precipitated the solutions were evaporated under vacuum and the solids analyzed by HT-XRPD. […]

SMILES | physical stability after exposure to AAC [1] | other results
N#CC[C@H]1CC[C@H](n2c(CC(=O)NC3CCOCC3)nc3cnc4[nH]ccc4c32)CC1 [Ex. 5, 2-(1-((1r,4r)-4-(Cyanomethyl)cyclohexyl)-1,6-dihydroimidazo[4,5-d]pyrrolo[2,3-b]pyridin-2-yl)-N-(tetrahydro-2H-pyran-4-yl)acetamide] | – | MDCK-MDR1 P^eapp(A-B) @ 5 (μM) (MDCK-MDR1 cell line): 0.5 10^−6 cm/sec
C[C@@H]1CCN(C(=O)CC#N)C[C@@H]1N(C)c1ncnc2[nH]ccc12 [tofacitinib] | – | clinical efficacy in Crohn's disease (moderate to severe CD): failure to achieve clinical efficacy
CC(C)(O)CNC(=O)Cc1nc2cnc3[nH]ccc3c2n1[C@H]1CC[C@H](CC#N)CC1 [Embodiment 7] | physically stable | –
CC(C)(O)CNC(=O)Cc1nc2cnc3[nH]ccc3c2n1[C@H]1CC[C@H](CC#N)CC1 [Embodiment 5] | physically unstable | –
CC(C)(O)CNC(=O)Cc1nc2cnc3[nH]ccc3c2n1[C@H]1CC[C@H](CC#N)CC1 [Embodiment 2] | converted to embodiment 3e | –
CC(C)(O)CNC(=O)Cc1nc2cnc3[nH]ccc3c2n1[C@H]1CC[C@H](CC#N)CC1 [Embodiment 10] | – | physical stability under ambient conditions ([1]; ambient conditions): limited physical stability
CC(C)(O)CNC(=O)Cc1nc2cnc3[nH]ccc3c2n1[C@H]1CC[C@H](CC#N)CC1 [Embodiment 6] | stable solid form | –
